Data published in patent US20200121677A1, “SUBSTITUTED 6,7-DIHYDROPYRAZOLO[1,5-a]PYRAZINES AS NEGATIVE ALLOSTERIC MODULATORS OF MGLUR2 RECEPTORS” (Janssen Pharmaceutica NV, priority 2014, published 2020).

Assays:
Male Wiga Wistar rats = experiment: Reversal of LY-404039-induced decrease of palpebral opening in apomorphine-challenged rats; type: in vivo, rat; details: for ED50: Rattus norvegicus, rats, route PO (route cell empty for Co. 88 and 84), read-out: ED50 APO LY-404039 (Reversal of LY-404039-induced decrease of palpebral opening in apomorphine challenged rats)
Description: 1) Reversal of LY-404039-Induced Decrease of Palpebral Opening in Apomorphine-Challenged Rats.
Male Wiga Wistar rats (Crl:WI; Charles River Germany; 220±40 g) were housed under standard laboratory conditions (21±2° C.; 50-65% relative humidity; light-dark cycle set at 12 h; lights on at 6.00 h) and fasted overnight prior to the start of the experiments (tap water remained available ad libitum). During the test period, they were housed in individual cages. Palpebral opening was scored every 5 min over the first hour after injection of apomorphine (1.0 mg/kg, i.v.) in animals either pretreated or not pretreated with LY-404039 (2.5 mg/kg, s.c.) at 1 h prior to the apomorphine injection. The animals were also pretreated with test compound or solvent at a predefined interval before apomorphine challenge. The score system was: (5) exophthalmos, (4) wide open, (3) open for three-quarters, (2) half open, (1) open for one-quarter, (0) closed. The scores for palpebral opening were cumulated over the 60-min observation period.

rats = experiment: Reversal of the effect of the mGluR2 PAM JNJ-42153605-induced inhibition of scopolamine-induced hyperlocomotion; type: in vivo, rat; details: rats, route PO, criterion total distance >1500 cm; for ED50: Rattus norvegicus, read-out: ED50 SCOP JNJ-42153605 (Reversal of the effect of JNJ 42153605 on scopolamine-induced hyperlocomotion)
Description: 2) Reversal of the Effect of the mGluR2 PAM JNJ-42153605-Induced Inhibition of Scopolamine-Induced Hyperlocomotion
Motor activity was measured in microprocessor-based motor activity arenas (closed gray PVC cylinders with a height of 39 cm and a diameter of 31 cm). Each arena was placed on an infrared LED (8×8 LEDs) lit box (white PVC squared box; 40×40 cm^2; height 12.5 cm. An infrared-sensitive tube camera and a white light source were mounted to the ceiling above the observation chamber to track the animal. The total distance traveled (cm) was recorded and analyzed using the Noldus Ethovision XT Video Tracking System (Version 7.0.418; Noldus, Wageningen, The Netherlands). The intensity of the light within the activity cages (measured in the centre at the level of the floor) ranged between 4 and 8 LUX.
The rats were pretreated with test compound or vehicle at 60 min before the start of the activity recordings and placed into individual cages. The rats were challenged with JNJ-42153605 (3-(cyclopropylmethyl)-7-(4-phenylpiperidin-1-yl)-8-(trifluoromethyl)[1,2,4]triazolo[4,3-a]pyridine; WO2010/130424; Cid et al. J. Med. Chem. 2012, 55, 8770-8789) (20 mg/kg, i.v.) 30 min before the start of the activity recording combined with scopolamine (0.16 mg/kg, i.v.) just before the start of the activity measurements. Immediately after the injection of scopolamine, the rats were placed into the activity monitors and total distance traveled over the first 30 min was measured.
For reversal of the inhibitory effect of JNJ-42153605 on the scopolamine-induced hyperlocomotion, the following all-or-none criteria were adopted: (1) reversal: total distance >1500 cm.

human mGlu2 receptor = human mGlu2 receptor (Homo sapiens, UniProt Q14416); experiment: [35S]GTPγS binding assay, mGluR2 negative allosteric modulation (membranes from CHO cells transfected with human mGlu2 receptor, glutamate ~EC80 60 μM); details: for IC50: GTPγS - hmGluR2 anGT pIC50, membranes with human mGlu2 receptor; for IC50 / GTPγS - hmGluR2 anGT pIC50: glutamate ~EC80 (60 μM), pIC50 = -log IC50 (M); for Emax: read-out: GTPγS - hmGluR2 anGT Emax, relative maximal effect: maximal % inhibition relative to the control glutamate response; for GTPγS - hmGluR2 anGT pIC50: membranes with human mGlu2 receptor; for GTPγS - hmGluR2 anGT Emax: relative maximal effect: maximal % inhibition relative to the control glutamate response;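 for all read-outs here: membranes preincubated 30 min at 30 °C with compound plus glutamate, then [35S]GTPγS (0.1 nM) incorporation measured over another 30 min at 30 °C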
Chain of human mGlu2 receptor (Q14416 19-872): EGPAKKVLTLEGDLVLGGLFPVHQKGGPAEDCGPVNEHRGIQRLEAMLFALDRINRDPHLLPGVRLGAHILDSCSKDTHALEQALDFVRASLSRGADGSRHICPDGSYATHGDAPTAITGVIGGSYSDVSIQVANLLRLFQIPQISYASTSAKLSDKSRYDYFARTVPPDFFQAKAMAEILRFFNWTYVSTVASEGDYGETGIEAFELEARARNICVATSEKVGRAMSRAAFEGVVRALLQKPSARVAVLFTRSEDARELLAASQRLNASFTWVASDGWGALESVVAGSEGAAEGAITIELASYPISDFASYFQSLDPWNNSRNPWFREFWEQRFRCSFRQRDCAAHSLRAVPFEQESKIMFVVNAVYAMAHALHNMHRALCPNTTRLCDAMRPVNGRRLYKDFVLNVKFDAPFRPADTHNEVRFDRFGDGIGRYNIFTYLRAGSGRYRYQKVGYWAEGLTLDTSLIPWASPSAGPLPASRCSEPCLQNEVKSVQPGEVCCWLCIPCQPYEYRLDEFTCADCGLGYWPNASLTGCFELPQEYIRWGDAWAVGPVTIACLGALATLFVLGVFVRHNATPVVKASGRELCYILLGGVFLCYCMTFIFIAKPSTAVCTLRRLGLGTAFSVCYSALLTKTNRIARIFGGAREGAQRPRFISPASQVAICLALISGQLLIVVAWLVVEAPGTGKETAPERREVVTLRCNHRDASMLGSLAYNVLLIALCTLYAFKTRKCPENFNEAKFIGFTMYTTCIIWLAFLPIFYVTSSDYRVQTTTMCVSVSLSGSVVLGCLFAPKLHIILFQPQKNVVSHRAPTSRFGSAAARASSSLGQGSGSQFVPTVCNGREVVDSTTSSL
Description: The [^35S]GTPγS binding assay is a functional membrane-based assay used to study G-protein coupled receptor (GPCR) function whereby incorporation of a non-hydrolysable form of GTP, [^35S]GTPγS (guanosine 5′-triphosphate, labelled with gamma-emitting ^35S), is measured. […] Here we describe the use of the [^35S]GTPγS binding assay using membranes from cells transfected with the human mGlu2 receptor and adapted from Schaffhauser et al. (Molecular Pharmacology, 2003, 4:798-810) for the detection of the negative allosteric modulation (NAM) properties of the compounds of this invention.
CHO-cells were cultured to pre-confluence and stimulated with 5 mM butyrate for 24 h. Cells were then collected by scraping in PBS and cell suspension was centrifuged (10 min at 4000 RPM in benchtop centrifuge). Supernatant was discarded and pellet gently resuspended in 50 mM Tris-HCl, pH 7.4 by mixing with an Ultra Turrax homogenizer. The suspension was centrifuged at 12,400 RPM (Sorvall F14S-6x250Y) for 10 minutes and the supernatant discarded. The pellet was homogenized in 5 mM Tris-HCl, pH 7.4 using an Ultra Turrax homogenizer and centrifuged again (13,000 RPM, 20 min, 4° C.). The final pellet was resuspended in 50 mM Tris-HCl, pH 7.4 and stored at −80° C. in appropriate aliquots before use. Protein concentration was determined by the Bradford method (Bio-Rad, USA) with bovine serum albumin as standard.
Measurement of mGluR2 negative allosteric modulatory activity of test compounds was performed as follows. Test compounds and glutamate were diluted in assay buffer containing 10 mM HEPES acid, 10 mM HEPES salt, pH 7.4, 100 mM NaCl, 3 mM MgCl2 and 10 μM GDP. Human mGlu2 receptor-containing membranes were thawed on ice and diluted in assay buffer supplemented with 18 μg/ml saponin. Membranes were pre-incubated with compound together with a predefined (˜EC80) concentration of glutamate (60 μM) for 30 min at 30° C. After addition of [^35S]GTPγS (f.c. 0.1 nM), assay mixtures were shaken briefly and further incubated to allow [^35S]GTPγS incorporation on activation (30 minutes, 30° C.). Final assay mixtures contained 7 μg of membrane protein in 10 mM HEPES acid, 10 mM HEPES salt, pH 7.4, 100 mM NaCl, 3 mM MgCl2, 10 μM GDP and 10 μg/ml saponin. Total reaction volume was 200 μl. Reactions were terminated by rapid filtration through Unifilter-96 GF/B plates (Perkin Elmer, Massachusetts, USA) using a 96-well filtermate universal harvester. Filters were washed 6 times with ice-cold 10 mM NaH2PO4/10 mM Na2HPO4, pH 7.4. Filters were then air-dried, and 30 μl of liquid scintillation cocktail (Microscint-O) was added to each well. Membrane-bound radioactivity was counted in a Topcount.
Data were calculated as % of the control glutamate response, defined as the response that is generated upon addition of an EC80-equivalent concentration of glutamate.

| SMILES | Palpebral opening score, Occurrence score > 26 (%) (Male Wiga Wistar rats; control animals, scores cumulated over 60 min after apomorphine 1.0 mg/kg i.v., LY-404039 2.5 mg/kg s.c. 1 h before apomorphine) | melting point [°C] | ED50 (rats) [mg/kg] | IC50 (human mGlu2 receptor) [M] | Emax (human mGlu2 receptor) [%] | ED50 (Male Wiga Wistar rats) [mg/kg] | ED50 SCOP JNJ-42153605 (Reversal of the effect of JNJ 42153605 on scopolamine-induced hyperlocomotion) (rats) [mg/kg] | GTPγS - hmGluR2 anGT pIC50 (human mGlu2 receptor) | GTPγS - hmGluR2 anGT Emax (human mGlu2 receptor) [%] |
| --- | --- | --- | --- | --- | --- | --- | --- | --- | --- |
| N[C@@]1(C(=O)O)CS(=O)(=O)[C@H]2[C@H](C(=O)O)[C@H]21 [LY-404039, reference compound] | 3.2 | – | – | – | – | – | – | – | – |
| C[C@H]1CN(c2ccc(C(F)(F)F)cc2)C(=O)c2c(C(=O)Nc3ccncc3)cnn21 [compound 3] | – | 160.2 | 0.08 | 2.09e-09 | 116 | – | – | – | – |
| C[C@H]1CN(c2ccc(C(F)(F)F)cc2)C(=O)c2c(C(=O)Nc3ccncc3F)cnn21 [compound 4] | – | 189 | 1.01 | 3.02e-09 | 117 | – | – | – | – |
| C[C@H]1CN(c2ccc(C(F)(F)F)cc2)C(=O)c2c(C(=O)Nc3ccc(F)cc3)cnn21 [compound 7] | – | 185.3 | > 2.5 | 4.68e-09 | 103 | – | – | – | – |
| C[C@H]1CN(c2ccc(C(F)(F)F)cc2)C(=O)c2c(C(=O)Nc3cncc(F)c3)cnn21 [compound 13] | – | 196.7 | 0.32 | 2.24e-09 | 110 | 0.32 | – | – | – |
| C[C@H]1CN(c2ccc(C(F)(F)F)cc2)C(=O)c2c(C(=O)Nc3ccc(N)nc3)cnn21 [compound 19] | – | 181.5 | 0.79 | 2.63e-09 | 104 | – | – | – | – |
| COc1cc(N2C[C@H](C)n3ncc(C(=O)Nc4cnccc4C)c3C2=O)ccc1C(F)(F)F [compound 32] | – | 243.4 | > 0.63 | 3.47e-09 | 111 | – | – | – | – |
| COc1cc(N2C[C@H](C)n3ncc(C(=O)Nc4cncc(C)c4)c3C2=O)ccc1C(F)(F)F [compound 33] | – | 216.6 | > 0.63 | 3.72e-09 | 111 | – | – | – | – |
| C[C@H]1CN(c2ccc(C(F)(F)F)c(F)c2)C(=O)c2c(C(=O)Nc3ccc(F)cn3)cnn21 [compound 78] | – | 183.36 | > 0.63 | 1.35e-08 | 106 | – | – | – | – |
| Cc1cc(NC(=O)c2cnn3c2C(=O)N(c2ccc(Cl)c(OC(F)F)c2)C[C@@H]3C)ccn1 [compound 84, (7S)-5-[4-chloro-3-(difluoromethoxy)phenyl]-7-methyl-N-(2-methyl-4-pyridyl)-4-oxo-6,7-dihydropyrazolo[1,5-a]pyrazine-3-carboxamide] | – | 196.7 | – | 7.41e-09 | 112 | > 2.5 | – | – | – |
| Cc1cc(NC(=O)c2cnn3c2C(=O)N(c2ccc(C(F)(F)F)c(C)c2)C[C@@H]3C)ccn1 [compound 86] | – | 121.8 | 1.26 | 2.29e-09 | 105 | – | – | – | – |
| Cc1cc(NC(=O)c2cnn3c2C(=O)N(c2ccc(C(F)(F)F)cn2)C[C@@H]3C)ccn1 [compound 88] | – | 244.9 | – | 8.51e-09 | 106 | > 2.5 | – | – | – |
| Cc1cc(NC(=O)c2cnn3c2C(=O)N(c2ccc(Cl)cc2)C[C@@H]3C)ccn1 [compound 89] | – | 171.4 | > 2.5 | 1.05e-08 | 107 | – | – | – | – |
| C[C@H]1CN(c2ccc(Cl)c(Cl)c2)C(=O)c2c(C(=O)Nc3ccc(F)cn3)cnn21 [compound 98, (7S)-5-(3,4-Dichlorophenyl)-N-(5-fluoro-2-pyridyl)-7-methyl-4-oxo-6,7-dihydropyrazolo[1,5-a]pyrazine-3-carboxamide] | – | 179.56 | > 0.63 | 3.63e-09 | 107 | – | – | – | – |
| C[C@H]1CN(c2ccc(C(F)(F)F)cc2)C(=O)c2c(C(=O)Nc3ccc(F)cn3)cnn21 [compound 104] | – | 184.48 | > 0.63 | 8.13e-09 | 108 | – | – | – | – |
| COc1cccc(NC(=O)c2cnn3c2C(=O)N(c2ccc(C(F)(F)F)cc2)C[C@@H]3C)n1 [compound 105] | – | – | – | – | – | – | >2.5 | 8.21 | 108 |

| SMILES | Palpebral opening score, Occurrence score > 26 (%) (Male Wiga Wistar rats; control animals, scores cumulated over 60 min after apomorphine 1.0 mg/kg i.v., LY-404039 2.5 mg/kg s.c. 1 h before apomorphine) | melting point [°C] | ED50 (rats) [mg/kg] | IC50 (human mGlu2 receptor) [M] | Emax (human mGlu2 receptor) [%] | ED50 (Male Wiga Wistar rats) [mg/kg] | ED50 SCOP JNJ-42153605 (Reversal of the effect of JNJ 42153605 on scopolamine-induced hyperlocomotion) (rats) [mg/kg] | GTPγS - hmGluR2 anGT pIC50 (human mGlu2 receptor) | GTPγS - hmGluR2 anGT Emax (human mGlu2 receptor) [%] |
| --- | --- | --- | --- | --- | --- | --- | --- | --- | --- |
| C[C@H]1CN(c2ccc(C(F)(F)F)c(Cl)c2)C(=O)c2c(C(=O)Nc3cnccn3)cnn21 [compound 106] | – | – | 0.32 | 1.15e-09 | 111 | – | – | – | – |
| Cc1cc(NC(=O)c2cnn3c2C(=O)N(c2ccc(C(F)(F)F)c(Cl)c2)C[C@@H]3C)cc(C)n1 [compound 107] | – | – | > 0.63 | 1.48e-09 | 107 | > 0.63 | – | – | – |
| C[C@H]1CN(c2ccc(C(F)(F)F)c(Cl)c2)C(=O)c2c(C(=O)Nc3ccc(F)cn3)cnn21 [compound 108] | – | 212.88 | > 0.63 | 2.82e-09 | 104 | – | – | – | – |
| Cc1cc(N2C[C@H](C)n3ncc(C(=O)Nc4ccc(F)cn4)c3C2=O)ccc1C(F)(F)F [compound 110] | – | – | – | – | – | – | >0.63 | 8.3 | 107 |
| Cc1cc(NC(=O)c2cnn3c2C(=O)N(c2ccc(C(F)(F)F)c(C)c2)C[C@@H]3C)cc(C)n1 [compound 111] | – | 161.92 | 0.32 | 1.45e-09 | 109 | – | – | – | – |
| Cc1cc(N2C[C@H](C)n3ncc(C(=O)Nc4cnccn4)c3C2=O)ccc1C(F)(F)F [compound 112] | – | – | 0.2 | 1.12e-09 | 106 | – | – | – | – |
| COc1cncc(NC(=O)c2cnn3c2C(=O)N(c2ccc(C(F)(F)F)c(Cl)c2)C[C@@H]3C)c1C [compound 127] | – | 185.94 | > 0.63 | 4.07e-09 | 108 | – | – | – | – |
| Cc1c(F)cncc1NC(=O)c1cnn2c1C(=O)N(c1ccc(C(F)(F)F)c(Cl)c1)C[C@@H]2C [compound 133, (7S)-5-[3-chloro-4-(trifluoromethyl)phenyl]-N-(5-fluoro-4-methyl-3-pyridyl)-7-methyl-4-oxo-6,7-dihydropyrazolo[1,5-a]pyrazine-3-carboxamide] | – | 167.78 | > 0.63 | 9.12e-10 | 105 | – | – | – | – |
| C[C@H]1CN(c2ccc(C(F)(F)F)cc2)C(=O)c2c(C(=O)Nc3nccs3)cnn21 [compound 140] | – | 246.7 | > 2.5 | 9.33e-09 | 111 | – | – | – | – |
| C[C@H]1CN(c2ccc(C(F)(F)F)cc2)C(=O)c2c(C(=O)Nc3ccncn3)cnn21 [compound 141] | – | 224.9 | > 2.5 | 8.32e-09 | 113 | – | – | – | – |
| C[C@H]1CN(c2ccc(C(F)(F)F)cc2)C(=O)c2c(C(=O)Nc3cnccc3CO)cnn21 [compound 147] | – | 212.57 | > 0.63 | 5.37e-08 | 103 | – | – | – | – |
| C[C@H]1CN(c2ccc(C(F)(F)F)cc2)C(=O)c2c(C(=O)Nc3ccnc(CF)c3)cnn21 [compound 151] | – | 152.64 | > 0.63 | 2.69e-09 | 115 | – | – | – | – |
| C[C@H]1CN(c2ccc(OC(F)(F)F)c(Cl)c2)C(=O)c2c(C(=O)Nc3cccnc3)cnn21 [compound 152] | – | 145.36 | 0.08 | 1.05e-09 | 108 | – | – | – | – |
| Cc1cc(NC(=O)c2cnn3c2C(=O)N(c2ccc(Cl)c(C)c2)C[C@@H]3C)cc(C)n1 [compound 160] | – | 178.1 | > 0.63 | 3.55e-09 | 112 | – | – | – | – |
| Cc1cc(N2C[C@H](C)n3ncc(C(=O)Nc4cnccn4)c3C2=O)ccc1Cl [compound 161] | – | 233.4 | > 0.63 | 2.82e-09 | 108 | – | – | – | – |
